“And” between values parts separate entries of the source, which are not always exact repeats. Equal values may be shown once.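 Results reflect a 48-hour exposure of cells in 96-well plates to compound at five concentrations. The concentration for 50% growth inhibition is given as GI50. TGI is the concentration that stops growth completely.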
Key:
Experiment in all cases: NCI-60 cell line screen, 48 h
LOX IMVI melanoma = tested on: LOX IMVI melanoma
786-0 renal = tested on: 786-0 renal
HOP-92 NSCLC = tested on: HOP-92 NSCLC
SK-MEL-2 melanoma = tested on: SK-MEL-2 melanoma
KM20L2 colon = tested on: KM20L2 colon
OVCAR-4 ovarian = tested on: OVCAR-4 ovarian
NCI-H23 lung = tested on: NCI-H23 lung
OVCAR-8 ovarian = tested on: OVCAR-8 ovarian
DMS 114 small cell lung = tested on: DMS 114 small cell lung

Row | SMILES | GI50 (LOX IMVI melanoma) [µM] | TGI (LOX IMVI melanoma) | GI50 (786-0 renal) | TGI (786-0 renal) | GI50 (HOP-92 NSCLC) [µM] | TGI (HOP-92 NSCLC) | GI50 (SK-MEL-2 melanoma) [µM] | TGI (SK-MEL-2 melanoma) | GI50 (KM20L2 colon) [µM] | TGI (KM20L2 colon) | GI50 (OVCAR-4 ovarian) [µM] | TGI (OVCAR-4 ovarian) | GI50 (NCI-H23 lung) [µM] | TGI (NCI-H23 lung) | GI50 (OVCAR-8 ovarian) | TGI (OVCAR-8 ovarian) | TGI (DMS 114 small cell lung) [µM]
1 | N.N.NCCCCN.O=C([O-])CC(=O)[O-].O=C([O-])CC(=O)[O-].[Pt+4].[Pt+4] | 78.3 | > 100 µM | 57.3 µM | > 100 µM | > 100 | > 100 µM | > 100 | > 100 µM | > 100 | > 100 µM | > 100 | > 100 µM | 89.1 | > 100 µM | > 100 µM | > 100 µM | –
2 | O=C1C2c3[nH]c4ccccc4c3C3CCSCC3C2C(=O)N1c1ccccc1 (configuration not stated) | – | > 100 µM | – | > 100 µM | – | > 100 µM | – | > 100 µM | – | > 100 µM | – | > 100 µM | – | > 100 µM | – | > 100 µM | –
3 | O=C(Nc1ccccc1)O/N=C1/CCCC/C1=C\c1ccccc1 | – | 34 µM | – | 32.5 µM | – | 46 µM | – | 29.2 µM | – | 43.2 µM | – | 30.3 µM | – | 48.8 µM | – | 42.8 µM | 24.8
4 | C=CC[P@@]1(=O)O[C@H](c2ccccc2)C(C)N1C(C)C (some centres not stated) | – | > 100 µM | – | > 100 µM | – | – | – | – | – | – | – | > 100 µM | – | > 100 µM | – | > 100 µM | > 100
5 | CC1=CCP(C(F)(F)F)P(C(F)(F)F)C1 (configuration not stated) | – | > 100 µM | – | > 100 µM | – | > 100 µM | – | – | – | > 100 µM | – | > 100 µM | – | > 100 µM | – | > 100 µM | > 100
6 | CC1(c2ccccc2)CC12C(=O)NC(=O)NC2=O (configuration not stated) | – | > 100 µM | – | > 100 µM | – | > 100 µM | – | > 100 µM | – | > 100 µM | – | > 100 µM | – | > 100 µM | – | > 100 µM | > 100
7 | Cc1c2cc[n+](C)cc2c(C)c2c1[nH]c1ccc(OC(C)C)cc12 | – | 21.4 µM and 26.2 µM | 0.223 µM and 1.41 µM | 9.1 µM and 32.5 µM | – | 13.5 µM and 16.8 µM | – | 3.94 µM and 8.68 µM | – | 44.3 µM and 39.8 µM | – | 17.4 µM and > 45.2 µM | – | 5.08 µM and 7.09 µM | 0.649 µM and 1.61 µM | 26 µM and 18.9 µM | –
8 | COc1c2c(c(OC)c3c(=O)cc(C/C(=N/NC(=O)C[n+]4ccccc4)C(=O)Nc4cc(C)ccc4C)oc13)OCO2 | – | > 100 µM | – | > 100 µM | – | > 100 µM | – | > 100 µM | – | > 100 µM | – | > 100 µM | – | > 100 µM | – | > 100 µM | > 100
9 | CC(C)(C)c1ccc(Oc2ccc(C#N)c(C#N)c2)c(C(C)(C)C)c1 | – | > 54.6 µM | – | > 100 µM | – | > 100 µM | – | 97.8 µM | – | > 100 µM | – | > 100 µM | – | > 100 µM | – | > 100 µM | > 52.2
10 | CC(=O)CC(=O)CCCC(=O)Nc1ccc(Cl)cc1Cl | – | > 100 µM | – | > 100 µM | – | > 100 µM | – | > 100 µM | – | > 100 µM | – | > 100 µM | – | > 100 µM | – | > 100 µM | –
11 | Nc1ccc(CCN2CCN(c3cccc(C(F)(F)F)c3)CC2)cc1 | – | > 100 µM | – | > 100 µM | – | > 100 µM | – | – | – | > 100 µM | – | – | – | > 100 µM | – | > 100 µM | > 100
12 | O=[N+]([O-])c1ccc(OCCNc2cccc3ccccc23)cc1 | – | – | – | > 100 µM | – | > 100 µM | – | > 100 µM | – | > 100 µM | – | > 100 µM | – | > 100 µM | – | > 100 µM | > 100
